{
  "source": "patent US20070231288A1",
  "about": "“COSMETIC USE OF D-RIBOSE AND METHOD THEREOF” (LM Cosmetics, priority 2006, published 2007)",
  "key": {"[1]": {"system": "normal human epidermal fibroblasts in culture", "experiment": "Effect of D-ribose on in vitro production of ATP by skin cells under hypoxia", "type": "cell-based", "details": "0.05% D-ribose, after 6 hours of severe hypoxia (oxygen <2%), 24 h pre-treatment", "procedure": "The inventors measured the effect of D-ribose on the production of ATP by the normal human epidermal fibroblasts in culture, under conditions of hypoxia. The cellules used are flask inoculations of normal human epidermal fibroblasts in DMEM medium with 10% FCS, incubation at 37° C., 5% CO2 and RH>95% up to 80% confluency. On Day 1, a first measurement of the level of ATP is taken on the untreated, unstressed NHDF. Pre-treatment for 24 hours with 0.05% of ribose versus an untreated control condition, 2 series in hexaplicate according to conditions. On Day 2, before the induction of hypoxia: stopping a series in order to measure the ATP level before hypoxia over all conditions (treated and untreated). The cells of the 2nd series were placed in suspension, the culture medium was renewed by DMEM 10% FCS supplemented with Hepes buffer (to maintain the pH at physiological conditions during hypoxia) and with EDTA (to prevent cell agglutination). The cells are placed in a incubator adjusted to 37° C., RH>95% the atmosphere of which has previously been replaced with nitrogen. Incubation for 6 hours under conditions of severe hypoxia (oxygen <2%) in the presence of 0.05% D-ribose versus an untreated control condition. Recovery of the cells and measurement of the quantity of ATP in the treated and untreated cells."}, "[2]": {"system": "normal human dermal fibroblasts in culture (NHDF)", "experiment": "Effect of D-ribose on in vitro skin cell respiration (BD Oxygen Biosensor System)", "type": "cell-based", "details": "0.05% D-ribose, after 2 hours of contact", "procedure": "The inventors measured the effect of D-ribose on the mitochondrial and cytosolic respiration of normal human dermal fibroblasts in culture (NHDF). The cells used are fibroblasts cultured at 37° C., 5% CO2, in DMEM medium, 10% FCS (foetal calf serum). The NHDF cultured in monolayer are placed in suspension and distributed in the wells of a special plate of the “BD Oxygen Biosensor System” kit. The bottom of the well is constituted by a membrane on which a molecule is grafted the fluorescence of which is inhibited by the oxygen dissolved in the incubation medium. The fluorescence increases in proportion to the oxygen consumed by the cells. 0.05% D-ribose is added in six wells. The intensity of fluorescence is measured in kinetic mode. The rate of respiration is calculated from measurements of the intensity of fluorescence."}},
  "data": [
    {"smiles": "O=C[C@H](O)[C@H](O)[C@H](O)CO", "note": "[D-ribose]", "values": [
      {"measurement": "ATP level re-established", "setting": "[1]", "value": 19, "unit": "%"},
      {"measurement": "increase in the cytosolic respiration", "setting": "[2]", "value": 37, "unit": "%"},
      {"measurement": "increase in the mitochondrial respiration", "setting": "[2]", "value": 31, "unit": "%"}
    ]}
  ]
}
